Test results: patent US20190315775A1, “MODIFIED […] AND PHARMACEUTICAL COMPOSITION HAVING SAME AS ACTIVE INGREDIENT” (KEIO UNIVERSITY, priority 2016, published 2019)
pIC50: −log10 of the molar value.

Key:
MUM24 cells = assay: Cell cycle, DNA content by flow cytometry; type: cell-based, human; settings: MUM24, 3 μM, 12, 24 and 36 hours
Description: The present inventors have reported that when HeLa cells of a human cervical cancer-derived cell line are treated with TC11, multipolarization and then multinucleation take place (Shiheido, H. et al., PLoS One, 7: e38878, 2012). The present inventors have also reported in the same paper α-tubulin and NPM1 as binding molecules for TC11. Next, intracellular DNA content was measured using flow cytometry in order to examine the effects of TC11 and its derivative, PEG11(E)-TC11 on cell cycle. More specifically, MUM24 was adjusted at 4.0×10^5 cells/mL, 1.95 mL each of MUM24 was seeded to a 6-well plate. From the next day, TC11 and PEG11(E)-TC11 were added in such a manner that the final concentrations were 0 and 3 μM, respectively, and then cells were cultured at 37° C. for 12, 24, and 36 hours. Each cell was collected, and then washed with PBS. 70% EtOH ([…]) was added and then the resultant was left to stand overnight at −30° C. After washing with PBS, […] of citrate-phosphate buffer was added, and then the resultant was left to stand at room temperature for 30 minutes, thereby eluting fragmented DNA. […] Fluorescence intensity was measured using BD FACS Calibur (Trademark) (Becton, Dickinson and company, New Jersey, USA). Wavelengths for measurement were an excitation wavelength of 488 nm, and a fluorescence wavelength of 610±10 nm.

[1] = Water solubility of drugs (saturation concentration by HPLC); type: physicochemical; settings: 100 mM Tris-HCl (pH 7.5); for Water solubility: 25° C., saturation concentration; for Water solubility, relative ratio (numerals in parentheses): relative to TC11
[2] = test system: HCT116 (human colon cancer cells; p53+/+); assay: WST-1 proliferation assay (Example 10), HCT116; type: cell-based; settings: HCT-116, WST-1, 48 hours
Description: (§1) Cancer cells used herein were KMS34 (human myeloma cells), HeLa (human cervical cancer cells), HCT116 (human colon cancer cells; p53+/+), KATOIII (human stomach cancer cells), MDA-MB-231 (human breast cancer cells), HT-29 (human colon adenocarcinoma cells), PANC-1 (human pancreatic cancer cells), and Li-7 (human liver cancer cells). Proliferation assay of various cancer cells was performed by the WST-1 method (Cook, J A. & Mitchell, J B., Anal. Biochem., 179, 1-7, 1984) as follows. One μ1 each of PEG11(E)-TC11 and PEG11(O)-TC11 prepared in advance at target concentrations was added into each well of a 96-well microplate. Medium was added to the wells at 50 μl per well, and then mixed by tapping lightly the plate. Subsequently, KMS34 was prepared at a concentration of 5×10^5 cells/ml, and cells other than KMS34 were prepared at a concentration of 2×10^5 cells/ml. Cells were seeded at 50 μl per well (2.5×10^4 cells, 1×10^4 cells), and then incubated in a CO2 incubator (37° C., 5% CO2) for 48 hours. […] Subsequently, the plate was shaken with a plate reader for 1 minute, and then absorbance was measured at 450 nm. At this time, absorbance was also measured at 595 nm as a reference wavelength. The net absorbance was obtained by subtracting the absorbance at the reference wavelength from the absorbance at 450 nm.

[3] = test system: HT-29 (human colon adenocarcinoma cells); assay: WST-1 proliferation assay (Example 10), HT-29; type: cell-based; settings: WST-1, 48 hours
Description: as §1

MUM24 MM cell line = assay: MTT cell proliferation inhibition, MUM24; type: cell-based; settings: Homo sapiens, MUM24, t(4;14), del13, del17, 48 hours, read-out: IC50, cell proliferation inhibitory activity, MUM24
[4] = test system: Li-7 (human liver cancer cells); assay: WST-1 proliferation assay (Example 10), Li-7; type: cell-based; settings: U-7 (head of Table 4), WST-1, 48 hours
Description: as §1

KMS11 xenograft = assay: Antitumor effect on KMS11-bearing mice (Example 16); type: in vivo, ICR/SCID mice; settings: for Body weight compared to the control group: at the doses suppressing tumor growth; for Tumor volume compared to the control: i.p., equimolar to TC11 60 mg/kgBW
Description: TC11 and its derivatives were examined for in vivo antitumor effects using 6 KMS11 xenograft model mice. KMS11 was administered to 6-week-old ICR/SCID mice at 3×10^7 cells/mouse via hypodermic injection. Tumor volume was measured over time. The day on which each tumor volume exceeded 50 mm^3 was designated as Day 1 and observation was performed for 14 days. The single dosage of TC11 was 60 mg/kgBW, the intraperitoneal dosages of PEG11(E)-TC11 and PEG11(O)-TC11 were 177.3 mg/kgBW and 163.8 mg/kgBW, respectively, which were equimolar amounts of that of TC11. […] The final composition of the solvent was 10% DMSO+1% Tween 80/physiological saline. […] Drug administration was performed for two out of every 3 days (Day 1, 2, 4, 5, 7, 8, 10, 11, […], 13). Mice were sacrificed on Day 14, and then tumor weights were measured and in vivo findings were confirmed.

[5] = test system: bone marrow stromal cell-derived normal cells (WT); assay: WST-1 proliferation assay (Example 11), normal cells; type: cell-based; settings: WST-1, 48 hours, FIG. 6
Description: Proliferation assay of cancer cells and normal cells was performed using WST-1 as follows. One μ1 each of PEG11(E)-TC11 and TC11 prepared at target concentrations was added to each well of a 96-well microplate. Medium was added to the wells at 50 μl per well, and then mixed by tapping lightly the plate. Next, high-risk MM cells (KMS34) prepared at 5×10^5 cells/ml and bone marrow stromal cell-derived normal cells (WT) prepared at 2×10^5 cells/ml were seeded at 50 μl (2.5×10^4 cells and 1×10^4 cells, respectively) per well, and then incubated in a CO2 incubator (37° C., 5% CO2) for 48 hours. Ten (10) μ1 each of cell proliferation reagent WST-1 (Roche) was added to each well after incubation, and then the resultants were mixed by lightly tapping the plate, followed by 1 hour of reaction in the CO2 incubator. Subsequently, the plate was shaken with a plate reader for 1 minute, and then absorbance was measured at 450 nm. At this time, absorbance was also measured at 595 nm as a reference wavelength. The net absorbance was obtained by subtracting the absorbance at the reference wavelength from the absorbance at 450 nm.

[6] = test system: KATOIII (human stomach cancer cells); assay: WST-1 proliferation assay (Example 10), KATOIII; type: cell-based; settings: KATO III, WST-1, 48 hours
Description: as §1

[7] = 6 KMS11 xenograft model mice, i.p. 177.3 mg/kgBW

SMILES | Effect on cell cycle (proportion of tetraploid cells) (MUM24 cells) | Water solubility [1] [g/100 ml] | Water solubility, relative ratio (numerals in parentheses) [1] | pIC50 [2] | pIC50 [3] | pIC50 (MUM24 MM cell line) | pIC50 [4] | Mice from which the primary lesion had completely disappeared (KMS11 xenograft; [7]) [mouse] | Mice having tumor sizes almost the same as at initiation of administration (KMS11 xenograft; [7]) [mice] | Body weight compared to the control group (KMS11 xenograft; KMS11 xenograft mice) | Tumor volume compared to TC11 (KMS11 xenograft; KMS11 xenograft mice, i.p. 177.3 mg/kgBW, 14 days) | Tumor volume compared to the control (KMS11 xenograft; KMS11 xenograft mice, 14 days) | Proliferation inhibitory activity against bone marrow stromal cell-derived normal cells (WT) [5] | pIC50 [6]
COCCOCCOCCOCCOCCOCCOCCOCCOCCOCCOCCOCCC(=O)OCCOc1cc2c(cc1N)C(=O)N(c1c(C(C)C)cccc1C(C)C)C2=O [PEG11(E)-TC11] | induce cell death by causing G2/M phase arrest | 8.89 | 4,447 × | 5.05 | 4.69 | 5.74 | 5.03 | 1 | 3 | no decrease in body weight | significant decrease in tumor volume compared to TC11 | significant decreases in tumor volume | no proliferation inhibitory activity | 5.10
COCCOCCOCCOCCOCCOCCOCCOCCOCCOCCOCCOCCOc1cc2c(cc1N)C(=O)N(c1c(C(C)C)cccc1C(C)C)C2=O [PEG11(O)-TC11] | – | 1.47 | 735 × | 4.46 | 4.94 | 5.04 | 4.06 | – | – | no decrease in body weight | – | significant decreases in tumor volume | – | 4.68
CC(C)c1cccc(C(C)C)c1N1C(=O)c2ccc(N)cc2C1=O [TC11, 2-(2,6-di-isopropylphenyl)-5-amino-1H-isoindole-1,3-dione, reference compound] | induce cell death by causing G2/M phase arrest | 0.002 | 1 × | – | – | 5.52 | – | – | – | no decrease in body weight | – | significant decreases in tumor volume | no proliferation inhibitory activity | –
